This note sets out measurements from patent US12257247B2 (Monte Rosa Therapeutics AG, priority 2023, dated 2025).

Read-outs that look alike come from different tables or passages of the source.

The assay concerns the target T1, VAV1 (Homo sapiens, UniProt P15498+Q96SW2).
T1 construct: A heterozygous VAV1 C-terminal HiBiT knock-in pool was generated at Monte Rosa Therapeutics from a clonal Jurkat cell; endogenous in cells; host or cells: Jurkat clone stably expressing LgBiT, homozygous GSPT1-G575N; heterozygous VAV1-HiBiT knock-in pool
The assay can be described thus: VAV1 degradation activity, VAV1-HiBiT knock-in Jurkat luminescence assay (Example A, Table 1). The class given is cell-based. The conditions noted are these: VAV1-HiBiT knock-in Jurkat cells; for Dmax: Jurkat. The essentials:
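Jurkat cells carrying VAV1-HiBiT knock-in, plated in RPMI/10% FBS with Endurazine live-cell substrate and pre-incubated ~16 h at 37° C. Compound dosed from 10 μM stock; luminescence read 6 and 24 h later. Response normalised to plate negative/positive controls, EC50 from 3-parameter logistic fit (hillslope 1).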
A general note: The HiBiT peptide binds its large partner to form an active luciferase.

Where [1] appears, read: luminescence read at 6 and 24 hours, read-out: VAV1 Dmax %.
Setting [2] is: luminescence read at 6 and 24 hours, read-out: VAV1 Dmax %, class.
Setting [3] is: luminescence read at 6 and 24 hours, read-out: VAV1 DC50.
The mark [4] stands for this setting: luminescence read at 6 and 24 hours, read-out: VAV1 DC50 (nM), class.
Where [5] appears, read: luminescence read at 6 and 24 hours after compound addition, read-out: VAV1 Dmax %.
Setting [6] is: luminescence read at 6 and 24 hours after compound addition, read-out: VAV1 Dmax %, class.
Setting [7] is: luminescence read at 6 and 24 hours after compound addition, read-out: VAV1 DC50.
Setting [8] is: luminescence read at 6 and 24 hours after compound addition, read-out: VAV1 DC50 (nM), class.
Setting [9] is: luminescence read at 6 and 24 hours.

Take `CC1CCN(c2ccc(-c3cccc(C4CCC(=O)NC4=O)c3Cl)cc2)C(=O)C1` (stereo not shown) [Compound 332]: the Dmax runs as follows: under setting [1], 95.5%; under setting [2], above 90%. Further, the DC50 is 10.6 nM under setting [3] and at most 100 nM under setting [4].

For `O=C1CCC(c2cccc(-c3ccc(OC4CCOC4)cc3)c2Cl)C(=O)N1` (stereo not shown) [Compound 109], the greatest degradation seen (Dmax) under setting [1] is 66.4% and the Dmax under setting [2] is 60 to 90%. For the same compound, the DC50 is 678 nM under setting [3] and 100 to 1000 nM under setting [4].

With `O=C1CCC(c2cccc(-c3ccc4c(c3)CC(=O)N4Cc3cocn3)c2Cl)C(=O)N1` (stereo not shown) [Compound 505, 3-(2-chloro-3-(1-(oxazol-4-ylmethyl)-2-oxoindolin-5-yl)phenyl)piperidine-2,6-dione], the Dmax reads like this: under setting [5], 80.7%; under setting [6], 60 to 90%. Besides, the DC50 was 86.9 nM under setting [7] and at most 100 nM under setting [8].

As to `O=C1CCC(c2cccc(-c3ccc(Cc4cccnn4)cc3)c2Cl)C(=O)N1` (stereo not shown) [Compound 453, 3-(2-chloro-4′-(pyridazin-3-ylmethyl)-[1,1′-biphenyl]-3-yl)piperidine-2,6-dione], the Dmax was 97.8% under setting [1] and above 90% under setting [2]. Also, the DC50 reads like this: under setting [3], 13.4 nM; under setting [4], at most 100 nM.

As to `O=C1CCC(c2cccc(-c3cnc(-n4ccccc4=O)c(F)c3)c2Cl)C(=O)N1` (stereo not shown) [Compound 427, 3-(2-chloro-3-(3′-fluoro-2-oxo-2H-[1,2′-bipyridin]-5′-yl)phenyl)piperidine-2,6-dione], the Dmax was 79.6% under setting [1] and 60 to 90% under setting [2]. Also, the half-maximal degradation concentration (DC50) reads like this: under setting [3], 246 nM; under setting [4], 100 to 1000 nM.

Regarding `O=C1CCC(c2cccc(-c3ccc(CN4CCC5CC5C4=O)cc3)c2Cl)C(=O)N1` (stereo not shown) [Compound 283], the Dmax under setting [1] worked out at 93.3% and the greatest degradation seen (Dmax) under setting [2] is above 90%. The DC50 under setting [3] worked out at 11.1 nM and the half-maximal degradation concentration (DC50) under setting [4] is at most 100 nM.

For `CC1(C)CN(c2cccc(-c3ccc(CC4CCC(=O)NC4=O)cc3Cl)c2)C(=O)CO1` (stereo not shown) [Compound 280], under setting [9], the “VAV1 Dmax %” value is 83.31%. The “VAV1 Dmax %, class” value under setting [9] is “B (B represents Dmax % >60% and <=90%)”. In addition, the half-maximal degradation concentration (DC50) runs as follows: under setting [3], 44.9 nM; under setting [4], at most 100 nM.

As for `O=C1CCC(c2cccc(-c3ccc4[nH]ccc4c3)c2Cl)C(=O)N1` (stereo not shown) [Compound 482, 3-(2-chloro-3-(1H-indol-5-yl)phenyl)piperidine-2,6-dione], the Dmax by setting is: under setting [1], 91.7%; under setting [2], above 90%. The DC50 runs as follows: under setting [3], 18.7 nM; under setting [4], at most 100 nM.

`O=C1CCC(c2cccc(-c3ccc(N4CCOCC4=O)cc3)c2Cl)C(=O)N1` (stereo not shown) [Compound 336]: the Dmax by setting is: under setting [1], 93.5%; under setting [2], above 90%. The DC50 is 17.4 nM under setting [3] and at most 100 nM under setting [4].

With `O=C1CCC(c2cccc(-c3ccc(CCN4CCOCC4)cc3)c2Cl)C(=O)N1` (stereo not shown) [Compound 122], the greatest degradation seen (Dmax) under setting [1] turned out to be 81.3% and the Dmax under setting [2] is 60 to 90%. In addition, the DC50 is 48.8 nM under setting [3] and at most 100 nM under setting [4].

With `O=C1CCC(c2cccc(-c3ccc(Cn4cccn4)cc3)c2Cl)C(=O)N1` (stereo not shown) [Compound 120], the maximal degradation (Dmax) is, setting by setting: under setting [1], 94%; under setting [2], above 90%. The DC50 reads like this: under setting [3], 15.1 nM; under setting [4], at most 100 nM.

In the case of `CC1(C)CN(c2ccc(-c3cccc(C4CCC(=O)NC4=O)c3Cl)cc2)C(=O)CO1` (stereo not shown) [Compound 311], the Dmax under setting [1] came to 92.7% and the maximal degradation (Dmax) under setting [2] is above 90%. The DC50 was 21.9 nM under setting [3] and at most 100 nM under setting [4].

Take `O=C1CCC(c2cccc(-c3ccc4c(c3)CCN4)c2Cl)C(=O)N1` (stereo not shown) [Compound 490, 3-(2-chloro-3-(indolin-5-yl)phenyl)piperidine-2,6-dione]: the Dmax is 74.5% under setting [5] and 60 to 90% under setting [6]. Moreover, the DC50 is, setting by setting: under setting [7], 131 nM; under setting [8], 100 to 1000 nM.

In the case of `COC1(CN2C(=O)Cc3cc(-c4cccc(C5CCC(=O)NC5=O)c4Cl)ccc32)CC1` (stereo not shown) [Compound 391, 3-(2-chloro-3-(1-((1-methoxycyclopropyl)methyl)-2-oxoindolin-5-yl)phenyl)piperidine-2,6-dione], the Dmax by setting is: under setting [1], 54%; under setting [2], below 60%. Besides, the DC50 reads like this: under setting [3], 5110 nM; under setting [4], above 1000 nM.

Regarding `Cn1cccc(-c2ccc(-c3cccc(C4CCC(=O)NC4=O)c3Cl)cc2)c1=O` (stereo not shown) [Compound 225, 3-(2-chloro-4′-(1-methyl-2-oxo-1,2-dihydropyridin-3-yl)-[1,1′-biphenyl]-3-yl)piperidine-2,6-dione], the greatest degradation seen (Dmax) is, setting by setting: under setting [1], 93.7%; under setting [2], above 90%. In addition, the 50% degradation concentration (DC50) under setting [3] was 14.4 nM and the DC50 under setting [4] is at most 100 nM.

For `Nc1ccc(-c2cccc(C3CCC(=O)NC3=O)c2Cl)cc1OC(F)F` (stereo not shown) [Compound 113], the Dmax by setting is: under setting [1], 64.6%; under setting [2], 60 to 90%. Besides, the 50% degradation concentration (DC50) reads like this: under setting [3], 482 nM; under setting [4], 100 to 1000 nM.

In the case of `O=C1CCC(c2cccc(-c3ccc(N4CCC(F)(F)CC4=O)cc3)c2Cl)C(=O)N1` (stereo not shown) [Compound 464, 3-(2-chloro-4′-(4,4-difluoro-2-oxopiperidin-1-yl)-[1,1′-biphenyl]-3-yl)piperidine-2,6-dione], the Dmax under setting [1] amounted to 94.8% and the Dmax under setting [2] is above 90%. For the same compound, the 50% degradation concentration (DC50) by setting is: under setting [3], 9.46 nM; under setting [4], at most 100 nM.

For `O=C1CCC(c2cccc(-c3ccc(N4Cc5cccnc5C4=O)cc3)c2Cl)C(=O)N1` (stereo not shown) [Compound 465, 3-(2-chloro-4′-(7-oxo-5,7-dihydro-6H-pyrrolo[3,4-b]pyridin-6-yl)-[1,1′-biphenyl]-3-yl)piperidine-2,6-dione], the greatest degradation seen (Dmax) is 39.9% under setting [1] and below 60% under setting [2]. The DC50 was at least 10000 nM under setting [3] and above 1000 nM under setting [4].

As to `CC1CCCC(=O)N1Cc1ccc(-c2cccc(C3CCC(=O)NC3=O)c2Cl)cc1` (stereo not shown) [Compound 295], the Dmax was 94.8% under setting [1] and above 90% under setting [2]. The 50% degradation concentration (DC50) runs as follows: under setting [3], 9.84 nM; under setting [4], at most 100 nM.

`O=C1CCC(c2cccc(-c3cnc(Cn4ccccc4=O)c(F)c3)c2Cl)C(=O)N1` (stereo not shown) [Compound 412, 3-(2-chloro-3-(5-fluoro-6-((2-oxopyridin-1(2H)-yl)methyl)pyridin-3-yl)phenyl)piperidine-2,6-dione]: the Dmax by setting is: under setting [1], 67.3%; under setting [2], 60 to 90%. Moreover, the DC50 is, setting by setting: under setting [3], 418 nM; under setting [4], 100 to 1000 nM.

For the compound `O=C1CCC(c2cccc(-c3ccc(N4C(=O)CC45CCC5)cc3)c2Cl)C(=O)N1` (stereo not shown) [Compound 405, 3-(2-chloro-4′-(2-oxo-1-azaspiro[3.3]-heptan-1-yl)-[1,1′-biphenyl]-3-yl)piperidine-2,6-dione], the maximal degradation (Dmax) is 76.3% under setting [1] and 60 to 90% under setting [2]. Besides, the DC50 runs as follows: under setting [3], 383 nM; under setting [4], 100 to 1000 nM.

Take `CN1CC(=O)N(c2ccc(-c3cccc(C4CCC(=O)NC4=O)c3Cl)cc2)CC12CC2` (stereo not shown) [Compound 352, 3-(2-chloro-4′-(4-methyl-6-oxo-4,7-diazaspiro[2.5]octan-7-yl)-[1,1′-biphenyl]-3-yl)piperidine-2,6-dione]: the greatest degradation seen (Dmax) under setting [1] came out at 82.3% and the Dmax under setting [2] was 60 to 90%. The DC50 was 65.3 nM under setting [3] and at most 100 nM under setting [4].

Consider `CN1CCCN(c2ccc(-c3cccc(C4CCC(=O)NC4=O)c3Cl)cc2)C1=O` (stereo not shown) [Compound 247], for which the Dmax by setting is: under setting [1], 95.4%; under setting [2], above 90%. For the same compound, the 50% degradation concentration (DC50) was 5.38 nM under setting [3] and at most 100 nM under setting [4].

`O=C1CCC(c2cccc(-c3ccc(Cn4ccccc4=O)nc3)c2Cl)C(=O)N1` (stereo not shown) [Compound 447, 3-(2-chloro-3-(6-((2-oxopyridin-1(2H)-yl)methyl)pyridin-3-yl)phenyl)piperidine-2,6-dione]: the Dmax is, setting by setting: under setting [1], 61.9%; under setting [2], 60 to 90%. Moreover, the DC50 reads like this: under setting [3], 741 nM; under setting [4], 100 to 1000 nM.

For `O=C1CCC(c2cccc(-c3ccc(CN4CCN5CCCC5C4=O)cc3)c2Cl)C(=O)N1` (stereo not shown) [Compound 261], the maximal degradation (Dmax) runs as follows: under setting [1], 84.8%; under setting [2], 60 to 90%. Also, the 50% degradation concentration (DC50) is, setting by setting: under setting [3], 101 nM; under setting [4], 100 to 1000 nM.

For `O=C1CCC(c2cccc(-c3ccc(CN4C(=O)CC45CCC5)cc3)c2Cl)C(=O)N1` (stereo not shown) [Compound 279], the maximal degradation (Dmax) under setting [1] was 98.5% and the Dmax under setting [2] is above 90%. The DC50 reads like this: under setting [3], 4.83 nM; under setting [4], at most 100 nM.

For the compound `CC1CCC(=O)N1Cc1ccc(-c2cccc(C3CCC(=O)NC3=O)c2Cl)cc1` (stereo not shown) [Compound 297], the maximal degradation (Dmax) under setting [1] turned out to be 93.5% and the maximal degradation (Dmax) under setting [2] is above 90%. The half-maximal degradation concentration (DC50) was 13.4 nM under setting [3] and at most 100 nM under setting [4].

For the compound `O=C1CCC(c2cccc(-c3ccc(N4COCCC4=O)cc3)c2Cl)C(=O)N1` (stereo not shown) [Compound 467, 3-(2-chloro-4′-(4-oxo-1,3-oxazinan-3-yl)-[1,1′-biphenyl]-3-yl)piperidine-2,6-dione], the Dmax was 95% under setting [1] and above 90% under setting [2]. Moreover, the DC50 under setting [3] was 11.5 nM and the 50% degradation concentration (DC50) under setting [4] is at most 100 nM.

By Dmax is commonly meant the greatest extent of degradation seen. As a reminder, the DC50 is the concentration at which degradation of the target reaches its halfway point.
